pEC50, pIC50: −log10 of the molar value. Where two headings read alike, the source gives them in different places.
Columns and labels:
GR (IL-6 promoter) = target: T1, GR (IL-6 promoter) (Homo sapiens, UniProt P04150); experiment: reporter gene test in HeLa cells, transrepression, IL-6 promoter-luciferase; conditions: for Emax: HeLa, read-out: Transrepression (TR)(IL-6-Promoter) Efficacy
T1 sequence (P04150 1-777): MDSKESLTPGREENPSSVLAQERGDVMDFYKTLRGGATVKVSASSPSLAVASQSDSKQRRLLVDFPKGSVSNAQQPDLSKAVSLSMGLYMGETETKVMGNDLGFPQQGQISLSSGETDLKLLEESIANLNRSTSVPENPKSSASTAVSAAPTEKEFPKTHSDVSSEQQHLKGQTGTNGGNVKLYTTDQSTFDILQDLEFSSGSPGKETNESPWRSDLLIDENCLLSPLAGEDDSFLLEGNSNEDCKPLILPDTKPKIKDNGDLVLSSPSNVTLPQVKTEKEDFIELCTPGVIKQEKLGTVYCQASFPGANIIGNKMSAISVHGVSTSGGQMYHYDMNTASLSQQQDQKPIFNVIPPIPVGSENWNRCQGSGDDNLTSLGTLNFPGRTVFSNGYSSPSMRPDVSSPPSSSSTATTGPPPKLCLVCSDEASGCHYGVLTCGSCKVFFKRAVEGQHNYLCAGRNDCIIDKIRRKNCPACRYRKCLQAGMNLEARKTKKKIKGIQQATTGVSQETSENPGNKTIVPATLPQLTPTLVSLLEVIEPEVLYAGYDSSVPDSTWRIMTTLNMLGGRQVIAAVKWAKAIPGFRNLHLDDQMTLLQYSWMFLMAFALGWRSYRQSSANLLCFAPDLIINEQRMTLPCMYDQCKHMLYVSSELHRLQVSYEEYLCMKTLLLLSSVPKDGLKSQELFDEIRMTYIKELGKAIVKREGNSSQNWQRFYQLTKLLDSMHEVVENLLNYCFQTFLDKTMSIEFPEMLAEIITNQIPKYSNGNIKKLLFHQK
Experimental: (§1) The MMTV promoter (transactivation) and the IL-6 promoter (transrepression) in each case were upstream to the gene that codes for the luciferase. By means of the photometric determination of the enzyme activity of the luciferase, it was possible to measure the activation of the transcription (MMTV-promoter-construct) or the inhibition of the transcription (IL-6-promoter-construct) by the GR.
(§2) This dissociation of the mechanisms of action was determined with the aid of the reporter gene test in stable transfixed human HeLa cells. To determine the transactivation induced by the GR, the MMTV promoter, which is set before a luciferase gene, is used. Via the photometric determination of the luciferase activity, it was possible to determine the transactivation activities of the GR after binding the test compounds. The inhibition of the transcription of the luciferase gene, induced by tetradecanoyl-phorbol acetate (TPA) under the control of the IL-6 promoter or the collagenase promoter (transpression) by the GR after binding the test substances, was also determined by the measurement of luciferase activity in HeLa cells.

[1] = tested on: secretion of cytokine IL-8 in human monocyte cell line THP-1; experiment: inhibition of LPS-triggered IL-8 secretion in THP-1 cells (ELISA); type: cell-based; set-up: Inhibition of IL-8 Secretion Efficacy: concentration or dose not given beside the values; conditions: THP-1, LPS-triggered
Experimental: The concentration of the cytokines was determined in the supernatant with use of commercially available ELISA kits.
The potency of the inflammation inhibition is determined by the inhibition of the secretion of cytokine IL-8 in a cellular test. […] The concentration of the cytokine was determined in the supernatant by commercially available ELISA kits. In this connection, the compounds of formula I show a high to very high potency and action (>50%) in the inhibition (see Table 4). The potency of the racemates is considerably lower than that of the pure enantiomers.

human GR = target: T2, human GR (Homo sapiens, UniProt P04150); experiment: glucocorticoid receptor (GR) binding test, cytosol of Sf9 cells, [3H]-dexamethasone; conditions: human GR from Sf9 cytosol
T2 construct: made in house; host or cells: Sf9 cells infected with recombinant baculovirus (cytosol preparation)
T2 sequence (P04150 1-777): T1 sequence (P04150 1-777)
Text: The binding of substances to the glucocorticoid receptor (GR) is examined with the aid of a recombinantly produced receptor. Cytosol preparations of Sf9 cells, which had been infected with recombinant baculoviruses, which code for the GR, are used for the binding studies.

GR (MMTV promoter) = target: T3, GR (MMTV promoter) (Homo sapiens, UniProt P04150); experiment: reporter gene test in HeLa cells, transactivation, MMTV promoter-luciferase; conditions: for TA:TR EC50:IC50: MMTV promoter EC50 : IL-6 promoter IC50
T3 sequence (P04150 1-777): T1 sequence (P04150 1-777)
Experimental: as §1, §2

[2] = target: T4, GR (collagenase promoter) (Homo sapiens, UniProt P04150); experiment: reporter gene test in HeLa cells, transrepression, collagenase promoter-luciferase; type: cell-based; conditions: TPA-induced; for pIC50: read-out: Transrepression (TR)(Collagenase Promoter) IC50
T4 construct: endogenous in cells; host or cells: HeLa cells stably transfected with promoter-luciferase reporters (MMTV, IL-6 or collagenase promoter)
T4 sequence (P04150 1-777): T1 sequence (P04150 1-777)

[3] = tested on: tyrosinamino transferase (TAT); experiment: induction of tyrosinamino transferase (TAT) in liver homogenates; type: in vivo; conditions: mice, 8 hours after administration, vs untreated control
Text: One of the most frequent undesirable effects of a glucocorticoid therapy is the so-called “steroid diabetes” [cf. Hatz, H. J., Glucocorticoide: Immunologische Grundlagen, Pharmakologie und Therapierichtlinien [Glucocorticoids: Immunological Bases, Pharmacology and Therapy Guidelines], Wissenschaftliche Verlagsgesellschaft mbH, Stuttgart, 1998]. The reason for this is the stimulation of the gluconeogenesis in the liver by induction of the enzymes that are responsible for this effect and by free amino acids, which develop from the degradation of proteins (catabolic action of glucocorticoids). A key enzyme of the catabolic metabolism in the liver is the tyrosinamino transferase (TAT). The activity of this enzyme can be determined photometrically from liver homogenates and represents a good yardstick of the undesirable metabolic actions of the glucocorticoids. To measure the TAT induction, the animals are sacrificed 8 hours after the test substances are administered, the livers are removed, and the TAT activity in the homogenate is measured.
As parameters for the side effects of the catabolic metabolism induced by steroids, the activity of the enzyme tyrosinamino transferase (TAT) was determined by photometry from liver homogenates. The activity represents a good yardstick for the undesirable catabolic actions of the glucocorticoids. To measure the TAT induction, the animals (mice and rats) are killed 8 hours after the test substance is administered, the liver is removed, and the TAT activity is measured in the homogenates.

[4] = tested on: croton oil-induced inflammation; experiment: croton oil-induced ear inflammation, edema formation in mice; type: in vivo; conditions: systemic, two hours before croton oil, ear weight
Experimental: The antiinflammatory actions of the compounds of general formula I were tested in the animal experiment by tests in the croton oil-induced inflammation in rats and mice (J. Exp. Med. (1995), 182, 99–108). In this connection, croton oil in ethanolic solution was administered topically to the animals' ears. The test substances were also administered topically or systemically simultaneously with or two hours before the croton oil. After 16–24 hours, the ear weight was measured as a yardstick of the inflammatory edema, the peroxidase activity was measured as a yardstick of the invasions of granuloctyes, and the elastase activity was measured as a yardstick of the invasion of neutrophilic granuloctyes.
The antiinflammatory action of the compounds of general formula I were tested in an animal experiment in croton oil-induced inflammation in mice and in rats (J. Exp. Med. (1995), 182, 99–108). In this connection, croton oil in ethanolic solution was administered topically to the animals' ears. The test substances were systemically administered for two hours before the croton oil. After 16–24 hours, the ear weight was measured as a yardstick for the inflammatory edema.

[5] = HeLa cells, TPA-induced, luciferase
[6] = read-out: Transrepression (TR)(IL-6-Promoter) IC50, HeLa cells, TPA-induced, luciferase
[7] = read-out: Transactivating (TA)(MMTV-Promoter) EC50, HeLa cells, luciferase

Molecule	pIC50 (GR (IL-6 promoter))	Emax (GR (IL-6 promoter))	Inhibition of IL-8 Secretion Efficacy [1]	Transrepression (TR)(IL-6-Promoter) Efficacy (GR (IL-6 promoter); [5])	pIC50 (GR (IL-6 promoter); [6])	Transactivating (TA)(MMTV-Promoter) Efficacy (GR (MMTV promoter); HeLa cells, luciferase)	also measured
Cc1noc(=O)c2ccc(NC(=O)C(O)(CC3(c4cccc5c4OCC5)CCC3)C(F)(F)F)cc12 (racemic) [Example 14]	–	–	61%	85%	8.38	–	pIC50 [1]: 7.15
Cc1noc(=O)c2ccc(NC(=O)C(O)(CC3(c4cccc5c4OCC5)CCC3)C(F)(F)F)cc12 (single isomer, unassigned) [Example 15]	–	–	74%	74%	8.82	–	pIC50 [1]: 8.12
CCc1noc(=O)c2ccc(NC(=O)C(O)(CC3(c4cccc5c4OCC5)CCC3)C(F)(F)F)cc12 (single isomer, unassigned) [Example 17]	–	–	–	73%	8.34	50%	TA:TR EC50:IC50 (GR (MMTV promoter)): 8.7; pEC50 (GR (MMTV promoter); [7]): 7.40
Cc1noc(=O)c2ccc(NC(=O)C(O)(CC(C)(C)c3cccc4ccoc34)C(F)(F)F)cc12 (single isomer, unassigned) [Example 23]	–	–	–	78%	8.80	76%	Transrepression (TR)(Collagenase Promoter) Efficacy [2]: 78%; pIC50 [2]: 8.31; Induction Factor for TAT with 3 mg/kg [3]: 1.1; Induction Factor for TAT with 30 mg/kg [3]: 1.0; TA:TR EC50:IC50 (GR (MMTV promoter)): 6.2; pEC50 (GR (MMTV promoter); [7]): 8.00
Cc1noc(=O)c2ccc(NC(=O)C(O)(CC3(c4cccc5c4OCO5)CC3)C(F)(F)F)cc12 (single isomer, unassigned; (+)) [Example 4]	–	–	62%	80%	8.82	–	pIC50 [1]: 7.54
Cc1noc(=O)c2ccc(NC(=O)C(O)(CC(C)(C)c3cc(Br)ccc3O)C(F)(F)F)cc12 (single isomer, unassigned; (+)) [Example 7, (+)-6-[4-(5-Bromo-2-hydroxyphenyl)-2-hydroxy-4-methyl-2-(trifluoromethyl)valeroylamino]-4-methyl-2,3-benzoxazin-1-one]	–	–	–	–	–	–	Edema Inhibition with 3 mg/kg [4]: 22%; Edema Inhibition with 30 mg/kg [4]: 75%; Induction Factor for TAT with 3 mg/kg [3]: 1.2; Induction Factor for TAT with 30 mg/kg [3]: 2.4
C[C@@H]1C[C@H]2[C@@H]3CCC4=CC(=O)C=C[C@]4(C)[C@@]3(F)[C@@H](O)C[C@]2(C)[C@@]1(O)C(=O)CO [Dexamethasone, reference compound]	–	–	–	100%	–	100%	Transrepression (TR)(Collagenase Promoter) Efficacy [2]: 100%
C[C@]12C=CC(=O)C=C1CC[C@@H]1[C@@H]2[C@@H](O)C[C@@]2(C)[C@H]1CC[C@]2(O)C(=O)CO [Prednisolone, reference compound]	–	94%	92%	–	–	–	Edema Inhibition with 3 mg/kg [4]: 35%; Edema Inhibition with 30 mg/kg [4]: 84%; Transrepression (TR)(Collagenase Promoter) Efficacy [2]: 96%; pIC50 ([1]; Homo sapiens): 7.74; Induction Factor for TAT with 3 mg/kg [3]: 2.6; Induction Factor for TAT with 30 mg/kg [3]: 8.0
(+)-6-[3-(Benzo[1,3]dioxol-4-yl)-cyclobutyl-2-hydroxy-2-trifluoromethyl-propionyl-amino]-4-methyl-2,3-benzoxazin-1-one [Example 6]	–	–	–	77%	8.92	–	Transrepression (TR)(Collagenase Promoter) Efficacy [2]: 95%; pIC50 [2]: 8.59

The next lines start with results.

pIC50 (GR (IL-6 promoter))	Emax (GR (IL-6 promoter))	Molecule	Inhibition of IL-8 Secretion Efficacy [1]	Transrepression (TR)(IL-6-Promoter) Efficacy (GR (IL-6 promoter); [5])	pIC50 (GR (IL-6 promoter); [6])	Transactivating (TA)(MMTV-Promoter) Efficacy (GR (MMTV promoter); HeLa cells, luciferase)	also measured
8.23	66%	Cc1noc(=O)c2ccc(NC(=O)C(O)(CC3(c4cccc5c4OCO5)CC3)C(F)(F)F)cc12 (racemic) [Example 3]	53%	–	–	–	pIC50 ([1]; Homo sapiens): 7.41
8.27	67%	COc1c(F)cccc1C1(CC(O)(C(=O)Nc2ccc3c(=O)onc(C)c3c2)C(F)(F)F)CCC1 (racemic) [Example 31]	–	–	–	–	pIC50 (human GR): 7.85
8.42	91%	Cc1noc(=O)c2ccc(NC(=O)C(O)(CC(C)(C)c3cc(F)cc4c3OCO4)C(F)(F)F)cc12 (single isomer, unassigned) [Example 19]	–	–	–	–	–
8.66	80%	Cc1noc(=O)c2ccc(NC(=O)C(O)(CC3(c4cccc(F)c4O)CCC3)C(F)(F)F)cc12 (single isomer, unassigned) [Example 33]	–	–	–	76%	pEC50 (GR (MMTV promoter)): 7.31; TA:TR EC50:IC50 (GR (MMTV promoter)): 22.3
8.55	67%	CCc1noc(=O)c2ccc(NC(=O)C(O)(CC(C)(C)c3cccc4ccoc34)C(F)(F)F)cc12 (single isomer, unassigned; (+)) [Example 8, (+)-4-Ethyl-6-[4-(7-benzofuranyl)-2-hydroxy-4-methyl-2-trifluoromethylvaleroylamino]-2,3-benzoxazin-1-one]	–	–	–	25%	Edema Inhibition with 3 mg/kg [4]: 33%; Edema Inhibition with 30 mg/kg [4]: 52%; pEC50 (GR (MMTV promoter)): 7.30; TA:TR EC50:IC50 (GR (MMTV promoter)): 17.8
